Measurements taken from PubChem BioAssay AID192 (DTP/NCI, 2004).
“And” between values parts separate entries of the source, which are not always exact repeats. Identical values can stand only once. Toxic doses and inconclusive results are not listed.

Tested on: BDF1 mice, B16 melanoma ip, median survival T/C
Experiment: NCI In Vivo Anticancer Drug Screen. Data for tumor model B16 Melanoma (intraperitoneal) in B6D2F1 (BDF1) mice
Conditions: endpoint: median survival time, higher = longer survival
Outline: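 Tumor-bearing mice received test compound or vehicle. Survival or tumor size was then measured in both groups. The treated-group figure was divided by the control-group figure.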

[1] = dose: 0.78 mg/kg/injection, schedule: Q01DX009 (ip), vehicle: saline
[2] = dose: 12.5 mg/kg/injection, schedule: Q01DX009 (ip), vehicle: Klucel (hydroxypropylcellulose) (HPC)
[3] = dose: 100.0 mg/kg/injection, schedule: Q01DX009 (ip), vehicle: Klucel (hydroxypropylcellulose) (HPC)
[4] = dose: 200.0 mg/kg/injection, schedule: Q01DX009 (ip), vehicle: Klucel (hydroxypropylcellulose) (HPC)
[5] = dose: 400.0 mg/kg/injection, schedule: Q01DX009 (ip), vehicle: Klucel (hydroxypropylcellulose) (HPC)
[6] = dose: 6.25 mg/kg/injection, schedule: Q01DX009 (ip), vehicle: saline with Tween-80
[7] = dose: 12.5 mg/kg/injection, schedule: Q01DX009 (ip), vehicle: saline with Tween-80
[8] = dose: 50.0 mg/kg/injection, schedule: Q04DX003 (ip), vehicle: saline with Tween-80
[9] = dose: 100.0 mg/kg/injection, schedule: Q04DX003 (ip), vehicle: saline with Tween-80
[10] = dose: 200.0 mg/kg/injection, schedule: Q04DX003 (ip), vehicle: saline with Tween-80
[11] = dose: 1.56 mg/kg/injection, schedule: Q01DX009 (ip), vehicle: saline
[12] = dose: 3.12 mg/kg/injection, schedule: Q01DX009 (ip), vehicle: saline
[13] = dose: 100.0 mg/kg/injection, schedule: Q01DX009 (ip), vehicle: saline with Tween-80
[14] = dose: 37.5 mg/kg/injection, schedule: Q01DX009 (ip), vehicle: saline
[15] = dose: 75.0 mg/kg/injection, schedule: Q01DX009 (ip), vehicle: saline
[16] = dose: 150.0 mg/kg/injection, schedule: Q01DX009 (ip), vehicle: saline

CN1CCN(CCCN2c3ccccc3Sc3ccc(Cl)cc32)CC1
T/C (dose: 0.19 mg/kg/injection, schedule: Q01DX009 (ip), vehicle: saline): 111 % of control
T/C (dose: 0.39 mg/kg/injection, schedule: Q01DX009 (ip), vehicle: saline): 97 % of control
T/C [1]: 100 % of control

CCCCCCCCCCCCCCCCNS(=O)(=O)c1ccc(NN)cc1
T/C [2]: 93 % of control
T/C (dose: 25.0 mg/kg/injection, schedule: Q01DX009 (ip), vehicle: Klucel (hydroxypropylcellulose) (HPC)): 96 % of control
T/C (dose: 50.0 mg/kg/injection, schedule: Q01DX009 (ip), vehicle: Klucel (hydroxypropylcellulose) (HPC)): 89 % of control and 90 % of control

COc1cc2c(cc1OC)C(CNC(=O)/C=C/c1ccccc1)C2 (centres undefined)
T/C [3]: 122 % of control
T/C [4]: 97 % of control
T/C [5]: 94 % of control

CCCN(C(=O)CCl)c1ccccc1
T/C (dose: 3.13 mg/kg/injection, schedule: Q01DX009 (ip), vehicle: Klucel (hydroxypropylcellulose) (HPC)): 94 % of control
T/C (dose: 6.25 mg/kg/injection, schedule: Q01DX009 (ip), vehicle: Klucel (hydroxypropylcellulose) (HPC)): 91 % of control
T/C [2]: 92 % of control

CC(C)(COC(=O)c1ccccc1)COC(=O)c1ccccc1
T/C [3]: 111 % of control
T/C [4]: 105 % of control
T/C [5]: 99 % of control

CC1(C)N=C(N)N=C(N)N1c1cccc(CCCCOc2ccccc2)c1
T/C (dose: 3.13 mg/kg/injection, schedule: Q01DX009 (ip), vehicle: saline with Tween-80): 95 % of control
T/C (dose: 3.13 mg/kg/injection, schedule: Q04DX003 (ip), vehicle: saline with Tween-80): 109 % of control
T/C [6]: 102 % of control
T/C (dose: 6.25 mg/kg/injection, schedule: Q04DX003 (ip), vehicle: saline with Tween-80): 109 % of control
T/C [7]: 102 % of control
T/C (dose: 12.5 mg/kg/injection, schedule: Q04DX003 (ip), vehicle: saline with Tween-80): 107 % of control

NCCSC(C[N+](=O)[O-])c1ccc2c(c1)OCO2 (centres undefined)
T/C [8]: 102 % of control
T/C [9]: 105 % of control
T/C [10]: 105 % of control

CC(=O)Nc1ccn(C2OC(COC(C)=O)C(OC(C)=O)C2OC(C)=O)c(=O)n1 (centres undefined)
T/C (dose: 150.0 mg/kg/injection, schedule: Q01DX009 (ip), vehicle: saline with Tween-80): 103 % of control
T/C (dose: 300.0 mg/kg/injection, schedule: Q01DX009 (ip), vehicle: saline with Tween-80): 114 % of control
T/C (dose: 600.0 mg/kg/injection, schedule: Q01DX009 (ip), vehicle: saline with Tween-80): 119 % of control
T/C (dose: 1200.0 mg/kg/injection, schedule: Q01DX009 (ip), vehicle: saline with Tween-80): 123 % of control

[Cl][Ni+2][Cl].[NH-]CCN1CC1
T/C [1]: 97 % of control
T/C [11]: 97 % of control
T/C [12]: 90 % of control

O=C(O)/C(Br)=C/c1ccccc1
T/C [8]: 107 % of control
T/C [9]: 112 % of control
T/C [10]: 102 % of control

CC(=O)/C(N=O)=C(/C)O
T/C (dose: 50.0 mg/kg/injection, schedule: Q01DX009 (ip), vehicle: saline): 110 % of control
T/C (dose: 100.0 mg/kg/injection, schedule: Q01DX009 (ip), vehicle: saline): 105 % of control
T/C (dose: 200.0 mg/kg/injection, schedule: Q01DX009 (ip), vehicle: saline): 97 % of control

Cc1ccc(C(=O)CCCCl)cc1C
T/C [13]: 100 % of control
T/C (dose: 200.0 mg/kg/injection, schedule: Q01DX009 (ip), vehicle: saline with Tween-80): 106 % of control
T/C (dose: 400.0 mg/kg/injection, schedule: Q01DX009 (ip), vehicle: saline with Tween-80): 97 % of control

CCc1cccc2ccccc12
T/C (dose: 75.0 mg/kg/injection, schedule: Q01DX009 (ip), vehicle: Klucel (hydroxypropylcellulose) (HPC)): 118 % of control
T/C (dose: 150.0 mg/kg/injection, schedule: Q01DX009 (ip), vehicle: Klucel (hydroxypropylcellulose) (HPC)): 121 % of control
T/C (dose: 300.0 mg/kg/injection, schedule: Q01DX009 (ip), vehicle: Klucel (hydroxypropylcellulose) (HPC)): 106 % of control

CCCCOCCN1CCN(CCCN2c3ccccc3Sc3ccc(C(F)(F)F)cc32)CC1
T/C (dose: 0.29 mg/kg/injection, schedule: Q04DX003 (ip), vehicle: saline): 89 % of control
T/C (dose: 0.58 mg/kg/injection, schedule: Q04DX003 (ip), vehicle: saline): 102 % of control
T/C [1]: 112 % of control
T/C (dose: 1.17 mg/kg/injection, schedule: Q04DX003 (ip), vehicle: saline): 107 % of control
T/C [11]: 115 % of control
T/C (dose: 2.34 mg/kg/injection, schedule: Q04DX003 (ip), vehicle: saline): 89 % of control
T/C [12]: 107 % of control

O=C[C@@H](CO)O[C@H](C=O)n1cnc2c(=O)[nH]cnc21
T/C [14]: 95 % of control
T/C [15]: 95 % of control
T/C [16]: 88 % of control

CCN(CC)CCC(=O)c1ccccc1
T/C (dose: 3.12 mg/kg/injection, schedule: Q01DX009 (ip), vehicle: saline with Tween-80): 114 % of control
T/C [6]: 108 % of control
T/C [7]: 117 % of control
T/C (dose: 25.0 mg/kg/injection, schedule: Q01DX009 (ip), vehicle: saline with Tween-80): 107 % of control
T/C (dose: 50.0 mg/kg/injection, schedule: Q01DX009 (ip), vehicle: saline with Tween-80): 108 % of control
T/C [13]: 107 % of control

Nc1cc2[nH]cnc2c(=O)[nH]1
T/C (dose: 12.5 mg/kg/injection, schedule: Q01DX009 (ip), vehicle: suspension in saline): 88 % of control
T/C (dose: 18.8 mg/kg/injection, schedule: Q01DX009 (ip), vehicle: saline): 102 % of control
T/C (dose: 25.0 mg/kg/injection, schedule: Q01DX009 (ip), vehicle: saline): 92 % of control
T/C (dose: 25.0 mg/kg/injection, schedule: Q01DX009 (ip), vehicle: suspension in saline): 95 % of control
T/C [14]: 102 % of control
T/C (dose: 50.0 mg/kg/injection, schedule: Q01DX009 (ip), vehicle: suspension in saline): 94 % of control
T/C [15]: 107 % of control
T/C (dose: 100.0 mg/kg/injection, schedule: Q01DX009 (ip), vehicle: suspension in saline): 95 % of control
T/C [16]: 107 % of control
T/C (dose: 200.0 mg/kg/injection, schedule: Q01DX009 (ip), vehicle: suspension in saline): 106 % of control

CCCCCCCCCCCCCCCC(=O)N(CCC#N)CCCCCCCCCN(CCC#N)C(=O)CCCCCCCCCCCCCCC
T/C (dose: 12.5 mg/kg/injection, schedule: Q04DX003 (ip), vehicle: Klucel (hydroxypropylcellulose) (HPC)): 88 % of control
T/C (dose: 25.0 mg/kg/injection, schedule: Q04DX003 (ip), vehicle: Klucel (hydroxypropylcellulose) (HPC)): 90 % of control

CCN(CC)CCSC(=S)N1c2ccccc2Sc2ccccc21
T/C (dose: 1.09 mg/kg/injection, schedule: Q01DX009 (ip), vehicle: Klucel (hydroxypropylcellulose) (HPC)): 109 % of control
T/C (dose: 2.18 mg/kg/injection, schedule: Q01DX009 (ip), vehicle: Klucel (hydroxypropylcellulose) (HPC)): 105 % of control
T/C (dose: 4.37 mg/kg/injection, schedule: Q01DX009 (ip), vehicle: Klucel (hydroxypropylcellulose) (HPC)): 107 % of control
T/C (dose: 8.75 mg/kg/injection, schedule: Q01DX009 (ip), vehicle: Klucel (hydroxypropylcellulose) (HPC)): 111 % of control
T/C (dose: 17.5 mg/kg/injection, schedule: Q01DX009 (ip), vehicle: Klucel (hydroxypropylcellulose) (HPC)): 100 % of control

CC1CC(C)(C)C(C[NH-])C1[NH-].[Cl][Pt+2][Cl] (centres undefined)
T/C (dose: 4.0 mg/kg/injection, schedule: Q01DX009 (ip), vehicle: other): 153 % of control
T/C (dose: 8.0 mg/kg/injection, schedule: Q01DX009 (ip), vehicle: other): 150 % of control
T/C (dose: 16.0 mg/kg/injection, schedule: Q01DX009 (ip), vehicle: other): 112 % of control
